For assay [1], the system named is Female CFLP mice. In words: Anti-hyperglycaemic activity: subcutaneous glucose load in fasted mice, area under blood glucose curve. In kind it is in vivo. The conditions noted are these: glucose 1 g/kg sc, 2 hour period, vs water control. The protocol: Female CFLP mice, each weighing approximately 25 g, were fasted for 24 hours prior to the study. The compounds under study were administered orally as an aqueous solution to each of 6 mice. 6 mice were given water as a control. 30 minutes later a blood sample (20 µl) was obtained from the tail for the analysis of blood glucose. Immediately after taking this blood sample, glucose (1 g/kg body weight) was administered subcutaneously to each mouse. Blood samples were then obtained from each mouse at 30 minute intervals for 120 minutes.
Compounds that produced a significant (P<0.05) reduction of blood glucose, compared with control mice given water, at any time interval, were considered active. The area under the blood glucose curve over the 2 hour period after the administration of the glucose was calculated for each compound and compared with the value for control animals.

The subject of assay [2] is Female CFLP mice. The experiment in a line: Effect on energy expenditure and food intake of mice. In kind it is in vivo. The conditions noted are these: Mus musculus; for response vs control in vivo at 24.3 mg/kg: 24.3 mg/kg po; for response vs control in vivo at 24.3 mg/kg / response vs control in vivo at 18.4 mg/kg: mice, 21 hours after dosing, % of mice dosed with water; for response vs control in vivo at 22.7 mg/kg / response vs control in vivo at 26.9 mg/kg / response vs control in vivo at 26.4 mg/kg / response vs control in vivo at 25.5 mg/kg / response vs control in vivo at 19.2 mg/kg / response vs control in vivo at 27.3 mg/kg / response vs control in vivo at 24.2 mg/kg / response vs control in vivo at 21.8 mg/kg / response vs control in vivo at 22.6 mg/kg / response vs control in vivo at 28.9 mg/kg / response vs control in vivo at 6.5 mg/kg / response vs control in vivo at 30.2 mg/kg / response vs control in vivo at 22 mg/kg / response vs control in vivo at 26.3 mg/kg: po, 21 h; for response vs control in vivo at 18.4 mg/kg: 18.4 mg/kg po.
Procedure: Female CFLP mice each weighing approximately 24 g, were given food and water ad lib before and during the experiment. The compounds were dissolved in water by addition of one mole of hydrochloric acid per mole of compound and these solutions were administered orally to each of 12 mice. A further 12 mice were dosed orally with water. The mice were placed in boxes through which air was drawn and the oxygen content of the air leaving the boxes was measured. […] The food intake of the mice was measured over this same period of 21 hours. The results are expressed as a percentage of the mean food intake or rate of energy expenditure of the mice dosed with water.

Where [3] appears, read: read-out: Mean Energy Expenditure (%).

Each structure is given as a SMILES string. Counter-ions that a name gives are not always drawn. Like-named read-outs stand apart in the source and are kept apart here.

From EP0070133B1, “Secondary phenylethanol amines, processes for their preparation and their pharmaceutical application” (priority 1981, dated 1983) come the findings set out here.

Turning to `CC(COc1ccc(CC(C)NCC(O)c2cccc(C(F)(F)F)c2)cc1)NCc1ccccc1` (stereo not shown) [Example 31, N-[2-(4-(2-Benzylaminopropoxy)phenyl)-1-methylethyl]-2-hydroxy-2-(3-trifluoromethylphenyl)ethanamine], in the assay on Female CFLP mice [1] (50 μ moles/kg po), the “Reduction in area under Blood glucose curve (%)” value (from here on “Reduction in area … (%)”) is listed as 45%. Moreover, the response vs control in vivo at 24.3 mg/kg in the assay with Female CFLP mice [2] (setting [3]) turned out to be 100%; in the assay on Female CFLP mice [2] (read-out: Mean Food Intake (%)) it was 59%.
In the case of `CCN(CC)CCOc1ccc(CC(C)NCC(O)c2cccc(C(F)(F)F)c2)cc1.O=C(O)/C=C/C(=O)O` (stereo not shown) [Example 36, N-[2-(4-(2-Diethylaminoethoxy)phenyl)-1-methylethyl]-2-hydroxy-2-(3-trifluoromethylphenyl)ethanamine fumarate], the “Reduction in area … (%)” value in the assay on Female CFLP mice [1] (50 μ moles/kg po) came out at 56%. Further, the response vs control in vivo at 22.7 mg/kg turned out to be 132% in the assay on Female CFLP mice [2] (setting [3]) and 78% in the assay with Female CFLP mice [2] (read-out: Mean Food Intake (%)).
For `CC(Cc1ccc(OCCN2CCCCCC2)cc1)NCC(O)c1cccc(C(F)(F)F)c1` (stereo not shown) [Example 15, N-[2-(4-(2-(1-Homopiperidine)ethoxy)phenyl)-1-methylethyl]-2-hydroxy-2-(3-trifluoromethylphenyl)-ethanamine dihydrochloride], the “Reduction in area … (%)” value in the assay on Female CFLP mice [1] (1 μ moles/kg po) is reported as 17%. The response vs control in vivo at 26.9 mg/kg amounted to 117% with Female CFLP mice [2] (setting [3]) and 77% with Female CFLP mice [2] (read-out: Mean Food Intake (%)).
Turning to `CC(Cc1ccc(OCCN2CCCCC2)cc1)NCC(O)c1cccc(C(F)(F)F)c1` (stereo not shown) [Example 26, N-[2-(4-(2-(1-Piperidine)ethoxy)phenyl)-1-methylethyl]-2-hydroxy-2-(3-trifluoromethylphenyl)ethanamine dihydrochloride monohydrate], the response vs control in vivo at 26.4 mg/kg came out at 125% in the assay with Female CFLP mice [2] (setting [3]) and 63% in the assay with Female CFLP mice [2] (read-out: Mean Food Intake (%)).
Take `CC(Cc1ccc(OCCN2CCCC2)cc1)NCC(O)c1cccc(C(F)(F)F)c1` (stereo not shown) [Example 25, N-[2-(4-(2-11-Pyrrolidine)ethoxy)phenyl)-1-methylethyl]-2-hydroxy-2-(3-trifluoromethylphenyl)ethanamine dihydrochloride]: the response vs control in vivo at 25.5 mg/kg with Female CFLP mice [2] (setting [3]) turned out to be 117%; in the assay on Female CFLP mice [2] (read-out: Mean Food Intake (%)), 87%.
In the case of `CC(Cc1ccc(OCC#N)cc1)NCC(O)c1cccc(Cl)c1` (stereo not shown) [Example 38, N-[2-(4-Cyanomethoxylphenyl)-1-methylethyl]-2-hydroxy-2-(3-chlorophenyl)ethanamine], the “Reduction in area … (%)” value with Female CFLP mice [1] (0.5 μ moles/kg po) is 63%. In addition, the response vs control in vivo at 19.2 mg/kg turned out to be 132% in the assay on Female CFLP mice [2] (setting [3]) and 81% with Female CFLP mice [2] (read-out: Mean Food Intake (%)).
On to `NCCOc1ccc(CCNCC(O)c2cccc(C(F)(F)F)c2)cc1` (stereo not shown) [Example 34, N-[2-(4-(2-Aminoethoxy)phenyl)ethyl]-2-hydroxy-2-(3-trifluoromethylphenyl)ethanamine], for which the values for the response vs control in vivo at 18.4 mg/kg in the assay on Female CFLP mice [2] (setting [3]) and with Female CFLP mice [2] (read-out: Mean Food Intake (%)) were 117% and 103%, respectively.
Consider `CC(Cc1ccc(OCCN)cc1)NCC(O)c1cccc(C(F)(F)F)c1.Cl.Cl.O.O` (stereo not shown) [Example 19, N-[2-(4-(2-Aminoethoxy)phenyl)-1-methylethyl]-2-hydroxy-2-(3-trifluoromethylphenyl)ethanamine dihydrochloride, dihydrate], for which the “Reduction in area … (%)” value in the assay on Female CFLP mice [1] (1 μ moles/kg po) was found to be 46%. The response vs control in vivo at 27.3 mg/kg in the assay on Female CFLP mice [2] (setting [3]) worked out at 135%; in the assay with Female CFLP mice [2] (read-out: Mean Food Intake (%)), 94%.
`CCNCCOc1ccc(CC(C)NCC(O)c2cccc(C(F)(F)F)c2)cc1` (stereo not shown) [Example 27, N-[2-(4-(2-Ethylaminoethoxy)phenyll-1-methylethyl]-2-hydroxy-2-(3-trifluoromethylphenyl)ethanaminedihydrochloride]: the results for the response vs control in vivo at 24.2 mg/kg with Female CFLP mice [2] (setting [3]) and in the assay on Female CFLP mice [2] (read-out: Mean Food Intake (%)) were 143% and 100%, respectively.
The matching figures for `CNCCOc1ccc(CC(C)NCC(O)c2ccc(Cl)cc2)cc1` (stereo not shown) [Example 12, N-[2-(4-(2-Methylaminoethoxy)phenyl)-1-methylethyl]-2-hydroxy-2-(4-chlorophenyl)ethanamine dihydrochloride]: 120% and 99%.
As to `CNCCOc1ccc(C[C@@H](C)NC[C@H](O)c2cccc(Cl)c2)cc1` [Example 28, N-[2-(4-(2-Methylaminoethoxy)phenyl)-1-methylethyl]-2-hydroxy-2-(3-chlorophenyl)ethanamine dihydrochloride - (RR,SS) diastereoisomer], in the assay on Female CFLP mice [1] (0.5 μ moles/kg po), the “Reduction in area … (%)” value worked out at 42%. Also, the response vs control in vivo at 21.8 mg/kg in the assay on Female CFLP mice [2] (setting [3]) amounted to 135%; in the assay with Female CFLP mice [2] (read-out: Mean Food Intake (%)) it was 108%.
Regarding `CC(Cc1ccc(OCCN2CCOCC2)cc1)NCC(O)c1cccc(C(F)(F)F)c1` (stereo not shown) [Example 30, N-[2-(4-(2-(1-Morpholine)ethoxy)phenyl)-1-methylethyl]-2-hydroxy-2-(3-trifluoromethylphenyl)ethanamine], the response vs control in vivo at 22.6 mg/kg is 125% in the assay with Female CFLP mice [2] (setting [3]) and 95% with Female CFLP mice [2] (read-out: Mean Food Intake (%)).
Take `Br.Br.CCc1cccc(C(O)CNC(C)Cc2ccc(OCCNC)cc2)c1` (stereo not shown) [Example 6, N-[2-(4-(2-Methylaminoethoxy)phenyl)-1-methylethyl]-2-hydroxy-2-(3-ethylphenyl)ethanamine dihydrobromide]: in the assay with Female CFLP mice [1] (50 μ moles/kg po), the “Reduction in area … (%)” value was determined as 36.5%. For the same compound, the response vs control in vivo at 28.9 mg/kg worked out at 97% in the assay with Female CFLP mice [2] (setting [3]) and 98% with Female CFLP mice [2] (read-out: Mean Food Intake (%)).
Regarding `CNCCOc1cccc(CC(C)NCC(O)c2cccc(Cl)c2)c1` (stereo not shown) [Example 29, N-[2-(3-(2-Methylaminoethoxy)phenyll-1-methylethyl]-2-hydroxy-2-(3-chlorophenyl)ethanaminedihydrochloride], the “Reduction in area … (%)” value in the assay on Female CFLP mice [1] (12.5 μ moles/kg po) came out at 48%. Further, the response vs control in vivo at 21.8 mg/kg stood at 123% in the assay on Female CFLP mice [2] (setting [3]) and 107% with Female CFLP mice [2] (read-out: Mean Food Intake (%)).
For `CNCCOc1ccc(C[C@H](C)NC[C@H](O)c2cccc(C(F)(F)F)c2)cc1` [Example 23, N-[2-(4-(2-Methylaminoethoxy)phenyl)-1-methylethyl]-2-hydroxy-2-(3-trifluoromethylphenyl)ethanamine dihydrochloride, (RS,SR) diastereoisomer], the “Reduction in area … (%)” value in the assay on Female CFLP mice [1] (2.5 μ moles/kg po) worked out at 20%. The values for the response vs control in vivo at 6.5 mg/kg in the assay with Female CFLP mice [2] (setting [3]) and in the assay on Female CFLP mice [2] (read-out: Mean Food Intake (%)) were 109% and 112%, respectively.
Take `Br.Br.CNCCOc1ccc(CC(C)NCC(O)c2cccc(Cl)c2)cc1F` (stereo not shown) [Example 5, N-[2-(3-Fluoro-4-(2-methylaminoethoxy)phenyl)-1-methylethyl)-2-hydroxy-2-(3-chlorophenyl) ethanamine dihydrobromide]: the “Reduction in area … (%)” value in the assay on Female CFLP mice [1] (1 μ moles/kg po) worked out at 38%. For the same compound, the results for the response vs control in vivo at 30.2 mg/kg in the assay on Female CFLP mice [2] (setting [3]) and with Female CFLP mice [2] (read-out: Mean Food Intake (%)) were 134% and 102%, respectively.
Turning to `CNC(=O)NCCOc1ccc(CC(C)NCC(O)c2cccc(C(F)(F)F)c2)cc1` (stereo not shown) [Example 17, N-[2-(4-(2-Methylaminocarbonylaminoethoxy)phenyl)-1-methylethyl]-2-hydroxy-2-(3-trifluoromethylphenyl)ethanamine], the response vs control in vivo at 22 mg/kg amounted to 114% in the assay on Female CFLP mice [2] (setting [3]) and 87% in the assay on Female CFLP mice [2] (read-out: Mean Food Intake (%)).
For the compound `CNCCCCCCOc1ccc(CC(C)NCC(O)c2cccc(C(F)(F)F)c2)cc1` (stereo not shown) [Example 33, N-[2-(4-(6-Methylaminohexyloxy)phenyl)-1-methylethyl]-2-hydroxy-2-(3-trifluoromethylphenyl)-ethanamine dihydrochloride], the response vs control in vivo at 26.3 mg/kg in the assay with Female CFLP mice [2] (setting [3]) worked out at 131%; in the assay on Female CFLP mice [2] (read-out: Mean Food Intake (%)) it was 80%.
